Laboratory results reported in patent US7820623B2 (priority 2006, dated 2010).
Bridge positions count the residues as written; N and C are the ends. Square brackets hold non-standard residues; d marks the D form. Ends that are not written are not given here. Peptide text beside a SMILES is read from it. 1Nal = N[C@@H](Cc1cccc2ccccc12)C(=O)O

B1: FcLoop-L2-OsK1-L2: OsK1 inserted into the human IgG1 Fc-loop domain with 2-Gly linkers on either side (protein)
chain: MDKTHTCPPCPAPELLGGPSVFLFPPKPKDTLMISRTPEVTCVVVDVSHEDPEVKFNWYVDGVEVHNAKTKPREEQYNSTYRVVSVLTVLHQDWLNGKEYKCKVSNKALPAPIEKTISKAKGQPREPQVYTLPPSRDELGGGVIINVKCKISRQCLEPCKKAGMRFGKCMNGKCHCTPKGGTKNQVSLTCLVKGFYPSDIAVEWESNGQPENNYKTTPPVLDSDGSFFLYSKLTVDKSRWQQGNVFSCSVMHEALHNHYTQKSLSLSPGK
modifications: Definition of Artificial Sequence: Synthetic protein
B2: FcLoop-L2-ShK-L2: ShK inserted into the human IgG1 Fc-loop domain with 2-Gly linkers (protein)
chain: MDKTHTCPPCPAPELLGGPSVFLFPPKPKDTLMISRTPEVTCVVVDVSHEDPEVKFNWYVDGVEVHNAKTKPREEQYNSTYRVVSVLTVLHQDWLNGKEYKCKVSNKALPAPIEKTISKAKGQPREPQVYTLPPSRDELGGRSCIDTIPKSRCTAFQCKHSMKYRLSFCRKTCGTCGGTKNQVSLTCLVKGFYPSDIAVEWESNGQPENNYKTTPPVLDSDGSFFLYSKLTVDKSRWQQGNVFSCSVMHEALHNHYTQKSLSLSPGK
modifications: Definition of Artificial Sequence: Synthetic protein

Tested on: thapsigargin-induced IL-2 production in human whole blood

Molecule	IC50 (read-out: Analogue Activity (IC50) WB/IL-2) [nM]	blockade of the whole blood cytokine response, IL-2 and IFNg
CC[C@H](C)[C@@H]1NC(=O)[C@H](CCCCN)NC(=O)[C@@H](NC(=O)[C@H](CCCCN)NC(=O)[C@@H](NC(=O)[C@H](CC(N)=O)NC(=O)[C@@H](NC(=O)[C@@H](NC(=O)[C@@H](NC(=O)CN)C(C)C)[C@@H](C)CC)[C@@H](C)CC)C(C)C)CSSC[C@@H]2NC(=O)[C@H](CCCCN)NC(=O)CNC(=O)[C@H](Cc3ccccc3)NC(=O)[C@H](CCCNC(=N)N)NC(=O)[C@H](CCSC)NC(=O)CNC(=O)[C@H](C)NC(=O)[C@H](CCCCN)NC(=O)[C@H](CCCCN)NC(=O)[C@@H]3CSSC[C@@H](C(=O)N[C@H](C(=O)N4CCC[C@H]4C(=O)N[C@@H](CCCCN)C(=O)O)[C@@H](C)O)NC(=O)[C@H](Cc4c[nH]cn4)NC(=O)[C@H](CSSC[C@H](NC(=O)[C@H](Cc4cccc5ccccc45)NC(=O)[C@H](CCCNC(=N)N)NC(=O)[C@H](CO)NC1=O)C(=O)N[C@@H](CC(C)C)C(=O)N[C@@H](CCC(=O)O)C(=O)N1CCC[C@H]1C(=O)N3)NC(=O)[C@H](CCCCN)NC(=O)CNC(=O)[C@H](CC(N)=O)NC(=O)[C@H](CCSC)NC2=O [Q13Nal] (H-GVIINVKCKISR[1Nal]CLEPCKKAGMRFGKCMNGKCHCTPK-OH; disulfide 8-28, 14-33, 18-35)	0.14	–
SEQ ID No: 4989: OSK1 analog without beta strand 1 (labeled des 1-7), Table 42 (CKISRQCLKPCKDAGMRFGKCMNGKCHC-NH2; ends and bridges not checked)	–	retain activity in blocking inflammation
B1	–	potent blockade
B2	–	potent blockade
